Legend:
[1] = molecular target: mutant BRAF enzyme (BRAF-V600E) (Homo sapiens (Human), UniProt P15056, V600E); test: RAF inhibition assay (TB-PMAP2K1 kit), BRAF-V600E; type: biochemical; details: FLUORESCEIN-MAP2K1 substrate, 60 min reaction
[2] = molecular target: mutant CRAF enzyme (RAF1 Y340D and Y341D) (Homo sapiens (Human), UniProt P04049, Y340D/Y341D); test: RAF inhibition assay (TB-PMAP2K1 kit), mutant CRAF; type: biochemical; details: FLUORESCEIN-MAP2K1 substrate, 60 min reaction
Sequence of mutant CRAF enzyme (RAF1 Y340D and Y341D) (P04049 whole entry Y340D/Y341D): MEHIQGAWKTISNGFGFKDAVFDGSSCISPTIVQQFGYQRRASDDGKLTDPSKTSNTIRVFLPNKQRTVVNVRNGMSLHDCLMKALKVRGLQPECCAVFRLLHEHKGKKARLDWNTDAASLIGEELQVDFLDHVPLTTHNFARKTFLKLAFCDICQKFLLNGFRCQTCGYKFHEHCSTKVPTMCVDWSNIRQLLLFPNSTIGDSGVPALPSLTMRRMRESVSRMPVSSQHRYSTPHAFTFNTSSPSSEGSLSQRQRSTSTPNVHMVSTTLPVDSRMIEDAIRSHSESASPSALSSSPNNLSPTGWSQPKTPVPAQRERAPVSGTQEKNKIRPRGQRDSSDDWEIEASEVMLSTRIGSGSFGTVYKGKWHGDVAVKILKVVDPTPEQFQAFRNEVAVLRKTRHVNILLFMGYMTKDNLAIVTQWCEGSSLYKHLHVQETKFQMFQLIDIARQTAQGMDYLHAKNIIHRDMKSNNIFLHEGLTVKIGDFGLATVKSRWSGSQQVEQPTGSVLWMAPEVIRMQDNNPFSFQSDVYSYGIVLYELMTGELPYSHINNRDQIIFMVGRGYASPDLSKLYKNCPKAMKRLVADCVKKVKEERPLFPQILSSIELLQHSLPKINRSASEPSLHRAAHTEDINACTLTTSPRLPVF

Sequence of mutant BRAF enzyme (BRAF-V600E) (P15056 whole entry V600E): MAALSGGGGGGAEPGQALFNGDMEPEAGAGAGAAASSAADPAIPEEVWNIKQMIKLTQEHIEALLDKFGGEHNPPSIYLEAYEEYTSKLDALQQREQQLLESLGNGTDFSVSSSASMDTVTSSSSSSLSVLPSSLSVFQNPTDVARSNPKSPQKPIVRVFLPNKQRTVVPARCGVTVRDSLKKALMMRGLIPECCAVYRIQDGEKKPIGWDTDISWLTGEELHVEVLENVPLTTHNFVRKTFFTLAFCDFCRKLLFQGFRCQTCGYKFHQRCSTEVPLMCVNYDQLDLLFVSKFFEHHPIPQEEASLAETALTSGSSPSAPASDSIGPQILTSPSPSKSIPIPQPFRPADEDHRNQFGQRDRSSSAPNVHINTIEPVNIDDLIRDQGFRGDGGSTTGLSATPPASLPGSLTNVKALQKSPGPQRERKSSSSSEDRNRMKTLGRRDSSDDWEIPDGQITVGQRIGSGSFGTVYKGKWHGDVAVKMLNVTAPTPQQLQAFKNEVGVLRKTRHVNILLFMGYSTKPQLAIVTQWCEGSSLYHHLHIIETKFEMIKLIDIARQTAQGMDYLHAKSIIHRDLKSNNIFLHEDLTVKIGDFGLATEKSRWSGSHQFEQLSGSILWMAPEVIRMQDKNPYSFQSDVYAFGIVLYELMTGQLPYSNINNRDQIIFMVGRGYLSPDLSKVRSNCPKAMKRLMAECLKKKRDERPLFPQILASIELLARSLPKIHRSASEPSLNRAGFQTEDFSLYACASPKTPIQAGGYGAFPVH

How did the IC50 [1] turn out when `Cc1ccc2c(Nc3cccc(Cl)c3F)nccc2c1NC(=O)c1cccc2c(N)ncnc12` [Compound 1, 4-amino-N-(1-((3-chloro-2-fluorophenyl)amino)-6-methylisoquinolin-5-yl)quinazoline-8-carboxamide] was run?
Its IC50 is 4.71 ± 2.62 nM.

What about the IC50 [2] of the same compound?
Its IC50 is 5.4 ± 0.6 nM.

What does the source list for `Cc1ccc2c(Cc3cccc(C(F)(F)F)c3)nccc2c1NC(=O)c1csc2c(N)ncnc12` [Compound 19, 4-amino-N-(6-methyl-1-(3-(trifluoromethyl)benzyl)isoquinolin-5-yl)thieno[3,2-d]pyrimidine-7-carboxamide]?
IC50 [1]: 13.9 ± 3.24 nM; IC50 [2]: 10.3 ± 2.29 nM

`Cc1ccc2c(C(=O)c3cccc(C(F)(F)F)c3)nccc2c1NC(=O)c1csc2c(N)ncnc12` [Compound 22, 4-amino-N-(6-methyl-1-(3-(trifluoromethyl)benzoyl)isoquinolin-5-yl)thieno[3,2-d]pyrimidine-7-carboxamide] was tested. Which IC50 [1] did it give?
The IC50 was 26.8 ± 6.82 nM.

And the IC50 [2]?
The IC50 was 14.5 ± 9.94 nM.

How did the IC50 [1] turn out when `Cc1ccc2c(Nc3ccc(N(C)C)nc3)nccc2c1NC(=O)c1cccc2c(N)ncnc12` [Compound 59, 4-amino-N-(1-((6-(dimethylamino)pyridin-3-yl)amino)-6-methylisoquinolin-5-yl)quinazoline-8-carboxamide] was run?
The IC50 was 13 ± 1.35 nM.

With `COc1ccc(Nc2nccc3c(NC(=O)c4cnc5c(N)ncnn45)c(C)ccc23)c(F)c1` [Compound 61, 4-amino-N-(1-((2-fluoro-4-methoxyphenyl)amino)-6-methylisoquinolin-5-yl)imidazo[2,1-f][1,2,4]triazine-7-carboxamide] as the compound, how does the IC50 [1] read?
The IC50 was 2.88 ± 0.74 nM.

`Cc1ccc2c(Nc3ccc(CN(C)C)c(C(F)(F)F)c3)nccc2c1NC(=O)c1cnc2c(N)ncnn12` [Compound 62, 4-amino-N-(1-((4-((dimethylamino)methyl)-3-(trifluoromethyl)phenyl)amino)-6-methylisoquinolin-5-yl)imidazo[2,1-f][1,2,4]triazine-7-carboxamide] was tested. Which IC50 [1] did it give?
The IC50 was 19.7 ± 4.67 nM.

Which IC50 [1] does the source give for `CC(=O)c1ccc(Nc2nccc3c(NC(=O)c4cccc5c(N)ncnc45)c(C)ccc23)cc1` [Compound 63, N-(1-((4-acetylphenyl)amino)-6-methylisoquinolin-5-yl)-4-aminoquinazoline-8-carboxamide] here?
Its IC50 is 5.39 ± 0.8 nM.

How did the IC50 [1] turn out when `Cc1ccc2c(Nc3ccc(Cl)c(CN(C)C)c3)nccc2c1NC(=O)c1cccc2c(N)ncnc12` [Compound 64, 4-amino-N-(1-((4-chloro-3-((dimethylamino)methyl)phenyl)amino)-6-methylisoquinolin-5-yl)quinazoline-8-carboxamide] was run?
Its IC50 is 13 ± 3.58 nM.

Which IC50 [1] does the source give for `Cc1ccc(Nc2nccc3c(NC(=O)c4cccc5c(N)ncnc45)c(C)ccc23)cc1` [Compound 65, 4-amino-N-(6-methyl-1-(p-tolylamino)isoquinolin-5-yl)quinazoline-8-carboxamide] here?
Its IC50 is 4.8 ± 0.78 nM.

`Cc1ccc2c(Nc3cccc(Cl)c3F)nccc2c1NC(=O)c1nccc2c(N)ncnc12` [Compound 66, 4-amino-N-(1-((3-chloro-2-fluorophenyl)amino)-6-methylisoquinolin-5-yl)pyrido[3,4-d]pyrimidine-8-carboxamide] was tested. Which IC50 [1] did it give?
Its IC50 is 2.57 ± 0.32 nM.

For `COc1ccc(Nc2nccc3c(NC(=O)c4cccc5c(N)ncnc45)c(C)ccc23)cc1OC` [Compound 68, 4-amino-N-(1-((3,4-dimethoxyphenyl)amino)-6-methylisoquinolin-5-yl)quinazoline-8-carboxamide], which IC50 [1] is on record?
Its IC50 is 15 ± 2.65 nM.

For `Cc1ccc2c(Nc3cccc(Cl)c3F)nccc2c1NC(=O)c1cncc2c(N)ncnc12` [Compound 69, 4-amino-N-(1-((3-chloro-2-fluorophenyl)amino)-6-methylisoquinolin-5-yl)pyrido[4,3-d]pyrimidine-8-carboxamide], which IC50 [1] is on record?
Its IC50 is 4.3 ± 1.14 nM.

For `Cc1ccc2c(Nc3ccc(Cl)c(F)c3F)nccc2c1NC(=O)c1cnc2c(N)ncnn12` [Compound 70, 4-amino-N-(1-((4-chloro-2,3-difluorophenyl)amino)-6-methylisoquinolin-5-yl)imidazo[2,1-f][1,2,4]triazine-7-carboxamide], which IC50 [1] is on record?
Its IC50 is 10.5 ± 1.72 nM.

`Cc1ccc2c(Nc3ccnc(C(F)(F)F)c3)nccc2c1NC(=O)c1cccc2c(N)ncnc12` [Compound 71, 4-amino-N-(6-methyl-1-((2-(trifluoromethyl)pyridin-4-yl)amino)isoquinolin-5-yl)quinazoline-8-carboxamide] was tested. Which IC50 [1] did it give?
The IC50 was 23 ± 1.76 nM.

How did the IC50 [1] turn out when `Cc1ccc2c(Nc3cc(F)ccc3F)nccc2c1NC(=O)c1cccc2c(N)ncnc12` [Compound 72, 4-amino-N-(1-((2,5-difluorophenyl)amino)-6-methylisoquinolin-5-yl)quinazoline-8-carboxamide] was run?
The IC50 was 6.9 ± 1.3 nM.

Which IC50 [1] does the source give for `CCOc1ccc(Nc2nccc3c(NC(=O)c4cccc5c(N)ncnc45)c(C)ccc23)c(F)c1` [Compound 74, 4-amino-N-(1-((4-ethoxy-2-fluorophenyl)amino)-6-methylisoquinolin-5-yl)quinazoline-8-carboxamide] here?
The IC50 was 13.8 ± 0.9 nM.

How did the IC50 [1] turn out when `COc1ccc(Nc2nccc3c(NC(=O)c4cccc5c(N)ncnc45)c(C)ccc23)cn1` [Compound 75, 4-amino-N-(1-((6-methoxypyridin-3-yl)amino)-6-methylisoquinolin-5-yl)quinazoline-8-carboxamide] was run?
The IC50 was 5.58 ± 0.77 nM.

Which IC50 [1] does the source give for `Cc1ccc2c(Nc3cccc(Cl)c3F)nccc2c1NC(=O)c1cc(O)cc2c(N)ncnc12` [Compound 76, 4-amino-N-(1-((3-chloro-2-fluorophenyl)amino)-6-methylisoquinolin-5-yl)-6-hydroxyquinazoline-8-carboxamide] here?
The IC50 was 29.3 ± 3.32 nM.

Which IC50 [1] does the source give for `Cc1ccc2c(Nc3ccc4c(c3)OCCO4)nccc2c1NC(=O)c1cccc2c(N)ncnc12` [Compound 77, 4-amino-N-(1-((2,3-dihydrobenzo[b][1,4]dioxin-6-yl)amino)-6-methylisoquinolin-5-yl)quinazoline-8-carboxamide] here?
Its IC50 is 7.9 ± 0.73 nM.

For `Cc1ccc2c(Nc3ccc(C#N)cc3F)nccc2c1NC(=O)c1cccc2c(N)ncnc12` [Compound 78, 4-amino-N-(1-((4-cyano-2-fluorophenyl)amino)-6-methylisoquinolin-5-yl)quinazoline-8-carboxamide], which IC50 [1] is on record?
The IC50 was 12.4 ± 0.94 nM.

Which IC50 [1] does the source give for `Cc1ccc2c(Nc3cccc(Cl)c3F)nccc2c1NC(=O)c1cc(OCCN2CCOCC2)cc2c(N)ncnc12` [Compound 79, 4-amino-N-(1-((3-chloro-2-fluorophenyl)amino)-6-methylisoquinolin-5-yl)-6-(2-morpholinoethoxy)quinazoline-8-carboxamide] here?
Its IC50 is 14.7 ± 1.66 nM.

How did the IC50 [1] turn out when `Cc1ccc2c(Nc3cc(C#N)ccc3F)nccc2c1NC(=O)c1cccc2c(N)ncnc12` [Compound 80, 4-amino-N-(1-((5-cyano-2-fluorophenyl)amino)-6-methylisoquinolin-5-yl)quinazoline-8-carboxamide] was run?
The IC50 was 13.5 ± 12.1 nM.

Which IC50 [1] does the source give for `Cc1ccc2c(Nc3cccc(Cl)c3F)nccc2c1NC(=O)c1ccnc2c(N)ncnc12` [Compound 81, 4-amino-N-(1-((3-chloro-2-fluorophenyl)amino)-6-methylisoquinolin-5-yl)pyrido[3,2-d]pyrimidine-8-carboxamide] here?
Its IC50 is 22 ± 3.69 nM.

With `Cc1ccc2c(Nc3ccc4c(c3)CN(C)CC4)nccc2c1NC(=O)c1cccc2c(N)ncnc12` [Compound 82, 4-amino-N-(6-methyl-1-((2-methyl-1,2,3,4-tetrahydroisoquinolin-7-yl)amino)isoquinolin-5-yl)quinazoline-8-carboxamide] as the compound, how does the IC50 [1] read?
The IC50 was 13.2 ± 1.69 nM.

`Cc1ccc2c(Nc3cccc(C#N)c3F)nccc2c1NC(=O)c1cccc2c(N)ncnc12` [Compound 83, 4-amino-N-(1-((3-cyano-2-fluorophenyl)amino)-6-methylisoquinolin-5-yl)quinazoline-8-carboxamide] was tested. Which IC50 [1] did it give?
Its IC50 is 15.1 ± 1.62 nM.

Which IC50 [1] does the source give for `Cc1ccc2c(Nc3cc(Cl)ccc3F)nccc2c1NC(=O)c1cc(F)cc2c(N)ncnc12` [Compound 84, 4-amino-N-(1-((5-chloro-2-fluorophenyl)amino)-6-methylisoquinolin-5-yl)-6-fluoroquinazoline-8-carboxamide] here?
Its IC50 is 23.8 ± 4.41 nM.

How did the IC50 [1] turn out when `Cc1ccc2c(Nc3cccc(Cl)c3F)nccc2c1NC(=O)c1cc(OCCO)cc2c(N)ncnc12` [Compound 86, 4-amino-N-(1-((3-chloro-2-fluorophenyl)amino)-6-methylisoquinolin-5-yl)-6-(2-hydroxyethoxy)quinazoline-8-carboxamide] was run?
The IC50 was 11.9 ± 1.3 nM.

`COc1ccc(F)c(Nc2nccc3c(NC(=O)c4cccc5c(N)ncnc45)c(C)ccc23)c1` [Compound 87, 4-amino-N-(1-((2-fluoro-5-methoxyphenyl)amino)-6-methylisoquinolin-5-yl)quinazoline-8-carboxamide] was tested. Which IC50 [1] did it give?
Its IC50 is 4.64 ± 0.7 nM.

`Cc1ccc(Nc2nccc3c(NC(=O)c4cccc5c(N)ncnc45)c(C)ccc23)c(F)c1` [Compound 88, 4-amino-N-(1-((2-fluoro-4-methylphenyl)amino)-6-methylisoquinolin-5-yl)quinazoline-8-carboxamide] was tested. Which IC50 [1] did it give?
Its IC50 is 11.7 ± 0.99 nM.

With `Cc1ccc2c(Nc3cc(Br)ccc3F)nccc2c1NC(=O)c1cccc2c(N)ncnc12` [Compound 91, 4-amino-N-(1-((5-bromo-2-fluorophenyl)amino)-6-methylisoquinolin-5-yl)quinazoline-8-carboxamide] as the compound, how does the IC50 [1] read?
Its IC50 is 20.9 ± 2.81 nM.

Which IC50 [1] does the source give for `Cc1ccc2c(Nc3c(F)c(F)cc(F)c3F)nccc2c1NC(=O)c1cccc2c(N)ncnc12` [Compound 95, 4-amino-N-(6-methyl-1-((2,3,5,6-tetrafluorophenyl)amino)isoquinolin-5-yl)quinazoline-8-carboxamide] here?
The IC50 was 13.9 ± 1.48 nM.

For `Cc1ccc2c(Nc3cccc(OCCN4CCOCC4)c3F)nccc2c1NC(=O)c1cccc2c(N)ncnc12` [Compound 98, 4-amino-N-(1-((2-fluoro-3-(2-morpholinoethoxy)phenyl)amino)-6-methylisoquinolin-5-yl)quinazoline-8-carboxamide], which IC50 [1] is on record?
The IC50 was 21.9 ± 6.38 nM.

Which IC50 [1] does the source give for `Cc1ccc2c(Nc3cccc(Cl)c3F)nccc2c1NC(=O)c1cn(C)c2c(N)ncnc12` [Compound 101, 4-amino-N-(1-((3-chloro-2-fluorophenyl)amino)-6-methylisoquinolin-5-yl)-5-methyl-5H-pyrrolo[3,2-d]pyrimidine-7-carboxamide] here?
Its IC50 is 5.58 ± 0.57 nM.

How did the IC50 [1] turn out when `Cc1ccc2c(Nc3cccc(Cl)c3F)ncnc2c1NC(=O)c1cccc2c(N)ncnc12` [Compound 102, 4-amino-N-(4-((3-chloro-2-fluorophenyl)amino)-7-methylquinazolin-8-yl)quinazoline-8-carboxamide] was run?
Its IC50 is 12.4 ± 3.05 nM.

— patent US20230312556A1, “ARYLAMIDE COMPOUND, PHARMACEUTICAL COMPOSITION COMPRISING SAME, AND PREPARATION METHOD THEREFOR AND USE THEREOF” (SICHUAN KELUN-BIOTECH BIOPHARMACEUTICAL CO., LTD., priority 2020, published 2023)
